pEC50, pIC50: −log10 of the molar value.
Tests used:
[1] = Cytotoxicity assay, PBM cells; format: cell-based, Human; details: human
in vitro = details: human, CEM cells (lymphoblastic cell line)
[2] = Cytotoxicity assay, Vero cells; format: cell-based, African green monkey; details: African green monkey, Vero cells (kidney)
PBM cells = test: Cytotoxicity assay, PBM cells; format: cell-based, Human; details: for pIC50: read-out: Cytotoxicity IC50 PBM, 5-day incubation
CEM cells = details: for pIC50: read-out: Cytotoxicity IC50 CEM, 5-day incubation
HIV-1 = format: cell-based; details: for pEC50: read-out: Anti-HIV-1 activity in PBM cells EC50; for EC90: read-out: Anti-HIV-1 activity in PBM cells EC90
Vero cells = test: Cytotoxicity assay, Vero cells; format: cell-based, African green monkey; details: read-out: Cytotoxicity IC50 Vero; Vero cells, 5-day incubation
PBM, CEM and Vero cells = test: Cytotoxicity across all cell lines used; format: cell-based

Row | Structure (SMILES) | IC50 at 5 day (in vitro) [µM] | IC50 at 5 day [1] [µM] | IC50 at 5 day [2] [µM] | also measured
1 | O=C(CN1c2c(n[nH]c2-c2cccc(Cl)c2)-c2ccccc2S1(=O)=O)NN=Cc1ccc([N+](=O)[O-])cc1 [Compound 5m, 2-[3-(3-Chlorophenyl)-5,5-dioxidobenzo[e]pyrazolo[4,3-c] [1,2]thiazin-4(2H)-yl]-N′-[4-nitrobenzylidene]acetohydrazide] | 2.8 | 16.7 | 21.2 | 
2 | O=C(CN1C(=O)c2ccccc2S1(=O)=O)c1cccc(Cl)c1 [Compound 1, N-3′-Chlorophenacylsaccharine] |  |  |  | pIC50 (PBM cells): < 4.00; pIC50 (CEM cells): < 4.00; pEC50 (HIV-1): < 4.00; EC90 (HIV-1): > 100 µM; pIC50 (Vero cells): 4.26
3 | O=C(CN1c2c(n[nH]c2-c2cccc(Cl)c2)-c2ccccc2S1(=O)=O)NN=Cc1ccc(Cl)cc1Cl [Compound 5f, 2-[3-(3-Chlorophenyl)-5,5-dioxidobenzo[e]pyrazolo[4,3-c] [1,2]thiazin-4(2H)-yl]-N′-(2,4-dichlorobenzylidene)acetohydrazide] | 13.8 | 80.7 | 84.8 | Toxicity in PBM cells (in words) (PBM cells): not toxic; Toxicity to CEM cell line (in words) (CEM cells): toxic to only CEM cell line
4 | COC(=O)CN1C(C(=O)c2cccc(Cl)c2)=C(O)c2ccccc2S1(=O)=O [Compound 3, Methyl 2-[3-(3-chlorobenzoyl)-4-hydroxy-1,1-dioxido-2H-benzo[e][1,2]thiazin-2-yl]acetate] | 22.4 | 57.3 | 40.6 | 
5 | COc1ccc(C=NNC(=O)CN2c3c(n[nH]c3-c3cccc(Cl)c3)-c3ccccc3S2(=O)=O)c(OC)c1OC [Compound 5i, 2-[3-(3-Chlorophenyl)-5,5-dioxidobenzo[e]pyrazolo[4,3-c] [1,2]thiazin-4(2H)-yl]-N′-(2,3,4-trimethoxybenzylidene) acetohydrazide] | 31.6 | 21.8 | 29 | pEC50 (HIV-1): 5.38
6 | COc1cc(C=NNC(=O)CN2c3c(n[nH]c3-c3cccc(Cl)c3)-c3ccccc3S2(=O)=O)cc(OC)c1OC [Compound 5j, 2-[3-(3-chlorophenyl)-5,5-dioxidobenzo[e]pyrazolo[4,3-c] [1,2]thiazin-4(2H)-yl]-N′-(3,4,5-trimethoxybenzylidene) acetohydrazide] | 31.6 | 11 | 14.3 | 
7 | CN(C)c1ccc(C=NNC(=O)CN2c3c(n[nH]c3-c3cccc(Cl)c3)-c3ccccc3S2(=O)=O)cc1 [Compound 5o, 2-[3-(3-Chlorophenyl)-5,5-dioxidobenzo[e]pyrazolo[4,3-c] [1,2]thiazin-4(2H)-yl]-N′-[4-(dimethylamino)benzylidene] acetohydrazide] | 2.5 | 23.7 | 10.4 | 
8 | O=C(CN1c2c(n[nH]c2-c2cccc(Cl)c2)-c2ccccc2S1(=O)=O)NN=Cc1ccc(C(=O)O)cc1 [Compound 5n, 4-[(2-(2-(3-(3-Chlorophenyl)-5,5-dioxidobenzo[e]pyrazolo [4,3-c][1,2]thiazin-4(2H)-yl)acetyl)hydrazono)methyl]benzoic acid] | 13.4 | 17.2 | 18.2 | 
9 | O=C(CN1c2c(n[nH]c2-c2cccc(Cl)c2)-c2ccccc2S1(=O)=O)NN=Cc1ccccc1[N+](=O)[O-] [Compound 5k, 2-[3-(3-Chlorophenyl)-5,5-dioxidobenzo[e]pyrazolo[4,3-c] [1,2]thiazin-4(2H)-yl]-N′-(2-nitrobenzylidene)acetohydrazide] | > 100 | > 100 | > 100 | Anti-HIV-1 activity (in words) (HIV-1): no inhibition; Toxicity to all the cell lines used (in words) (PBM, CEM and Vero cells): no toxicity
10 | O=C(CN1c2c(n[nH]c2-c2cccc(Cl)c2)-c2ccccc2S1(=O)=O)NN=Cc1ccc(Cl)cc1 [Compound 5c, N′-(4-Chlorobenzylidene)-2-[3-(3-chlorophenyl)-5,5-dioxidobenzo[e]pyrazolo[4,3-c][1,2]thiazin-4(2H)-yl]acetohydrazide] | 2.5 | 12.8 | 19.2 | pEC50 (HIV-1): 5.40; Toxicity to all the cell lines used (in words) (PBM, CEM and Vero cells): highly toxic
11 | NNC(=O)CN1c2c(n[nH]c2-c2cccc(Cl)c2)-c2ccccc2S1(=O)=O [Compound 4] |  |  |  | pIC50 (PBM cells): < 4.00; pIC50 (CEM cells): < 4.00; Anti-HIV-1 activity (in words) (HIV-1): inactive; pEC50 (HIV-1): < 4.00; EC90 (HIV-1): > 100 µM; Toxicity to all the cell lines used (in words) (PBM, CEM and Vero cells): nontoxic; pIC50 (Vero cells): < 4.00
12 | O=C(C1=C(O)c2ccccc2S(=O)(=O)N1)c1cccc(Cl)c1 [Compound 2, (3-chlorophenyl)(4-hydroxy-1,1-dioxido-2H-benzo[e] [1,2]thiazin-3-yl)methanone] | 26.7 | > 100 | > 100 | 

Second part, led by results:

Row | IC50 at 5 day (in vitro) [µM] | Structure (SMILES) | IC50 at 5 day [1] [µM] | IC50 at 5 day [2] [µM] | also measured
13 | 31.6 | O=C(CN1c2c(n[nH]c2-c2cccc(Cl)c2)-c2ccccc2S1(=O)=O)NN=Cc1ccc(F)cc1 [Compound 5a, 2-[3-(3-Chlorophenyl)-5,5-dioxidobenzo[e]pyrazolo[4,3-c] [1,2]thiazin-4(2H)-yl]-N′-(4-fluorobenzylidene)acetohydrazide] | 20 | 45.7 | 
14 | 5 | O=C(CN1c2c(n[nH]c2-c2cccc(Cl)c2)-c2ccccc2S1(=O)=O)NN=Cc1ccc(Br)cc1 [Compound 5e, N′-(4-Bromobenzylidene)-2-(3-(3-chlorophenyl)-5,5-dioxidobenzo[e]pyrazolo[4,3-c][1,2]thiazin-4(2H)-yl)acetohydrazide] | 66.7 | 46.5 | Toxicity in PBM cells (in words) (PBM cells): not toxic
15 | 12.5 | O=C(CN1c2c(n[nH]c2-c2cccc(Cl)c2)-c2ccccc2S1(=O)=O)NN=Cc1c(Cl)cccc1Cl [Compound 5g, 2-[3-(3-Chlorophenyl)-5,5-dioxidobenzo[e]pyrazolo[4,3-c] [1,2]thiazin-4(2H)-yl]-N′-(2,6-dichlorobenzylidene)acetohydrazide] | 52.5 | 60.5 | Toxicity in PBM cells (in words) (PBM cells): not toxic; Toxicity to CEM cell line (in words) (CEM cells): toxic to only CEM cell line
16 | 47.3 | O=C(CN1c2c(n[nH]c2-c2cccc(Cl)c2)-c2ccccc2S1(=O)=O)NN=Cc1cccc([N+](=O)[O-])c1 [Compound 5l, 2-[3-(3-Chlorophenyl)-5,5-dioxidobenzo[e]pyrazolo[4,3-c] [1,2]thiazin-4(2H)-yl]-N′-(3-nitrobenzylidene)acetohydrazide] | > 100 | 27 | Toxicity in PBM cells (in words) (PBM cells): not toxic
17 | 31.6 | O=C(CN1c2c(n[nH]c2-c2cccc(Cl)c2)-c2ccccc2S1(=O)=O)NN=Cc1cccc(Cl)c1 [Compound 5b, N′-(3-Chlorobenzylidene)-2-[3-(3-chlorophenyl)-5,5-dioxidobenzo[e]pyrazolo[4,3-c][1,2]thiazin-4(2H)-yl]acetohydrazide] | 36.3 | 16.4 | 
18 | 31.6 | COc1cccc(C=NNC(=O)CN2c3c(n[nH]c3-c3cccc(Cl)c3)-c3ccccc3S2(=O)=O)c1 [Compound 5h, 2-[3-(3-Chlorophenyl)-5,5-dioxidobenzo[e]pyrazolo[4,3-c] [1,2]thiazin-4(2H)-yl]-N′-(3-methoxybenzylidene)acetohydrazide] | 19 | 22.3 | 
19 | 12.9 | O=C(CN1c2c(n[nH]c2-c2cccc(Cl)c2)-c2ccccc2S1(=O)=O)NN=Cc1cccc(Br)c1 [Compound 5d, N′-(3-Bromobenzylidene)-2-[3-(3-chlorophenyl)-5,5-dioxidobenzo[e]pyrazolo[4,3-c][1,2]thiazin-4(2H)-yl]acetohydrazide] | 22.9 | > 100 | 

From article PMC8312988 (Medicinal chemistry research : an international journal for …, 2015)
